Results published in US20050014722A1, “Process for preparing n-acylated lysophosphatidylcholine and pharmaceutical composition for treatment of metabolic bone disease comprising said compounds” (priority 2001, published 2005).

What was measured:
[1] = system: differentiation of osteoclasts in co-culture of bone marrow cells and osteoblasts; assay: Osteoclast differentiation in co-culture of osteoblasts and bone marrow cells (TRAP staining); type: cell-based, ICR mice; conditions: for TRAP-positive osteoclast cell number: co-culture, vitamin D3 and PGE2, 6 days, control 397+36.75; for Inhibitory activity on osteoclast differentiation in co-culture of bone marrow cells and osteoblasts: 4 μM
Description: (§1) Primary osteoblasts, bone marrow cells and osteoclast precursor cells were cultured in α-Minimum Essential Medium (α-MEM, Gibco BRL) supplemented with 10% (v/v) fetal bovine serum (Gibco BRL), and 1× antibiotics containing penicillin/streptomycin (Gibco BRL).
Until now, osteoclast cell lines have not been established, making it difficult to study differentiation of osteoclasts. Osteoclasts originate from hematopoietic stem cells derived from bone marrow, and differentiate with the help of osteoblasts/stromal cells. For these reasons, the co-culture system of osteoblasts and bone marrow cells is used for differentiation of osteoclasts. In these Experimental Examples, a differentiation system of bone marrow cells to osteoclasts was established by co-culture of osteoblasts and bone marrow cells, and, in this system, the CHJ-0014 compound was evaluated for its inhibitory effect on differentiation of osteoclasts.
After sacrificing one-day postnatal ICR mice and disinfecting them in 70% ethanol, calvarias were collected using surgical scissors and forceps, cut into several pieces, and transferred into 3× HBSS contained in a 60-mm culture dish. 0.1% collagenase (Gibco BRL) and 0.2% dispase (Boehringer Mannheim) were added to the solution, followed by incubation at 37° C. for 15 min. The treatment of calvarias with collagenase and dispase was repeated 4 more times. From the second treatment of calvarias with collagenase and dispase, the solution was centrifuged after each treatment at 1600 rpm for 5 min to harvest cells, thereby collecting osteoblasts. The collected osteoblasts were plated onto a 100-mm culture dish at a density of about 1-2×10^6 cells, and cultured in 15 ml of α-MEM supplemented with 10% FBS for 3 days. Thereafter, the proliferated osteoblasts were aliquotted into cryo-vials, and stored in liquid nitrogen until use in co-culture of osteoblasts and bone marrow cells.
(§2) After sacrificing 6-7 week ICR female mice by cervical dislocation and disinfecting their rear legs in 70% ethanol, tibias were isolated aseptically. The isolated tibias were placed into 3× HBSS (Gibco BRL), and soft tissue was completely removed. Both ends of tibias were cut, and 1×α-MEM was injected into bone marrow and then sucked up using a 1 ml syringe, collecting bone marrow cells. After sufficient suspending by pipetting, the collected bone marrow cells were centrifuged at 1600 rpm for 5 min to harvest cells. The resulting pellet (bone marrow cells and erythrocytes) was suspended in about 15-20 ml of ACK buffer (155 mM NH4Cl, 11 mM KHCO3, 0.01 mM EDTA). After incubation for 2 min, phosphate buffer was added to the cell suspension to minimize damage to bone marrow cells and lyse erythrocytes.
(§3) Thereafter, the cell suspension was centrifuged (1600 rpm, 5 min), and the resulting cell pellet was suspended in 10% FBS-containing α-MEM.
The isolated and cultured osteoblasts and bone marrow cells were co-cultured, as follows. Bone marrow cells and osteoblasts were plated onto a 48-well plate at a density of 2×10^5 cells and 2×10^4 cells per well, respectively, and co-cultured in 10% FBS-containing x-MEM. After adding vitamin D3 (10^−8 M) and PGE 2 (Prostaglandin E 2, 10^−6 M) to the culture medium, the cells were treated with the CHJ-0014 compound at various concentrations of 1.65 μM, 3.3 μM and 6.6 μM. A co-culture group not treated with the CHJ-0014 compound was used as a control. When the culture medium was exchanged with a fresh medium after incubation for 3 days, vitamin D3 (10^−8 M) and PGE 2 (10^−6 M) were again added to the medium, and the CHJ-0014 compound was also added to the medium at the same concentrations as above.
After incubation for 6 days, the culture medium was removed, and completely differentiated osteoclasts were fixed with 10% formalin for 5 min. After removing formalin, the fixed osteoclasts were treated with 0.1% Triton X-100 for 10 sec. […]

[2] = system: peritoneal macrophages; assay: Cytotoxicity by MTT assay, peritoneal macrophages; type: cell-based; conditions: 6.6 μM, 24 hrs
[3] = system: human embryonic kidney cell line 293T; assay: Cytotoxicity by MTT assay, 293T cells; type: cell-based; conditions: 6.6 μM, 24 hrs
[4] = system: murine bone marrow cells; assay: Cytotoxicity by MTT assay, bone marrow cells; type: cell-based; conditions: 6.6 μM, 24 hrs
[5] = system: osteoclast precursor cells; assay: Differentiation of osteoclast precursor cells isolated from bone, ODF and M-CSF (TRAP staining); type: cell-based, ICR mice; conditions: for TRAP-positive osteoclast cell number: osteoclast precursor cells, ODF 100 ng/ml, M-CSF 30 ng/ml, day 9, control 344±43.7
Description: as §1
Osteoclast progenitors derived from bone marrow cells migrate eventually to bone, differentiate to osteoclast precursors therein, and further differentiate to active osteoclasts having bone resorption ability and participate in bone resorption. That is, osteoclast precursor cells present in bone are at a different differentiation stage from the active osteoclasts. Recently, a cytokine playing a critical role in osteoclast differentiation was identified to be ODF (also called OPGL or RANKL), and a recombinant ODF protein can be produced on a large scale, thereby facilitating osteoclast differentiation by primary cell culture.
Osteoclast precursor cells were isolated from […]. After sacrificing 5-6 week ICR female mice by cervical dislocation and disinfecting their rear legs in 70% ethanol, tibias and femurs were isolated aseptically. After removing soft tissue according to the same method as in Example 2 from the isolated tibias and femurs, 3× HBSS (Gibco BRL) was injected into bone marrow several times, thereby collecting bone marrow cells, as follows. Bone was cut into small pieces using a surgical scissor, and incubated in a collagenase solution (1 mg/ml collagenase type II, 0.05% trypsin, 4 mM EDTA, Gibco BRL) contained in a culture dish at 37° C. for 15 min. The collagenase treatment was carried out 4 more times. After being treated three times, bone pieces were further cut into a smaller size. After one more treatment with collagenase, the bone pieces were washed with 3× HBSS five times. After completely removing the enzyme solution by centrifugation, the bone pieces were suspended in pre-cooled α-MEM, and placed onto ice for 15 min. After vortexing for 1 min, an equal volume of α-MEM was added to the bone suspension, followed by incubation on ice for 15 min. The bone suspension was filtered through a sterilized mass, and the obtained cells were cultured in 10% FBS-containing α-MEM.
The isolated and cultured osteoclast precusor cells were plated onto a 48-well plate at a density of 0.5×10^6 cells. After adding ODF (100 ng/ml) and M-CSF (30 ng/ml) to the medium, the cells were treated with the CHJ-0014 compound at various concentrations of 0.825 μM, 1.65 μM, 3.3 μM and 6.6 μM. A group not treated with the CHJ-0014 compound was used as a control. When the culture medium was exchanged with a fresh medium after incubation for 3 days, the cells were again treated with the identical amount of ODF, M-CSF and CHJ-0014. On day 6 after culturing, the culture medium was exchanged with a fresh medium, according to the same method as in on day 3. On day 9, TRAP staining was carried out, and TRAP-positive osteoclasts were counted under an optical microscope (×100).

[6] = system: differentiation of osteoclasts in culture of bone marrow cells; assay: Osteoclast differentiation in culture of bone marrow cells induced by ODF and M-CSF (TRAP staining); type: cell-based, ICR mice; conditions: for TRAP-positive osteoclast cell number: bone marrow cells, ODF 50 ng/ml, M-CSF 30 ng/ml, control 240±44
Description: as §1, §2, §3
In this test, to evaluate this possible scenario, only bone marrow cells were treated with a recombinant ODF protein and inhibitory activity of the CHJ-0014 compound on osteoclast differentiation was investigated in culture of only bone marrow cells. Bone marrow cells, isolated according to the same method as in Experimental Example 1, were plated onto a 48-well plate at a density of 4×10^5 cells, and cultured in 10% FBS-containing α-MEM. After adding ODF (50 ng/ml) and M-CSF (30 ng/ml) to the medium, the cells were treated with the CHJ-0014 compound at various concentrations of 0.825 μM, 1.65 μM, 3.3 μM and 6.6 μM. When the culture medium was exchanged with a fresh medium after incubation for 3 days, the cells were again treated with the identical amount of ODF, M-CSF and CHJ-0014. After incubation for 6 days, the culture medium was exchanged with a fresh medium, and the cells were further cultured for 2 more days.
Completely differentiated osteoclasts were identified by TRAP staining. TRAP staining was carried out using the Leukocyte Acid Phosphatase Kit (Sigma, Cat. No. 387-A). The culture medium was removed, and completely differentiated osteoclasts were fixed with 10% formalin for 5 min. After removing formalin, the fixed osteoclasts were treated with 0.1% Trypton X-100 for 10 sec. After removing Trypton X-100, the cells were stained with a TRAP staining solution in the kit for 5 min. After eliminating the TRAP staining solution, the cells were washed with distilled water twice, dried, and TRAP-positive osteoclasts were counted under an optical microscope (×100).

[7] = system: transcription factor NF-κB; assay: NF-κB activity by EMSA (electrophoresis mobility shift assay) in osteoclasts; type: cell-based; conditions: osteoclast nuclear extract
Description: The CHJ-0014 compound was investigated for its inhibitory effect on the activity of the transcription factor NF-κB participating in osteoclast differentiation by performing EMSA (electrophoresis mobility shift assay). Osteoclasts were prepared according to the same method as in Experimental Experiment 3, and incubated in hypotonic lysis buffer (10 mM HEPES, pH 7.9, 1.5 mM MgCl2, 10 mM KCl, 0.5 mM DTT, 0.5 mM PMSF) on ice for 10 min. The osteoclast-containing solution was transferred into a microcentrifuge, supplemented with 0.1% NP40, and incubated for 15 min with occasional agitation. After centrifugation (4,000 rpm, 15 min), the resulting cell pellet was suspended in 15 μl of high salt buffer (20 mM HEPES, pH 7.9, 420 mM NaCl, 25% glycerol, 1.5 mM MgCl2, 0.2 mM EDTA, 0.5 mM PMSF, 0.5 mM DTT), and placed onto ice for 20 min. 75 μl of storage buffer (20 mM HEPES, pH 7.9, 100 mM NaCl, 20% glycerol, 0.2 mM EDTA, 0.5 mM PMSF, 0.5 mM DTT) was added to the cell suspension, and incubated with agitation for 10 sec. After centrifugation (14,000 rpm, 20 min), the resulting supernatant was subjected to protein quantitative assay. Protein assay was performed using a DC Protein Assay Kit (Bio-Rad).
A NF-κB-specific oligomer (5′-AGTTGAGGGGACTTTCCCA GGC-3′, Santa Cruz) was radiolabeled using [γ-^32P]ATP and […], and used as a probe. […]

[8] = system: osteoblasts; assay: Cytotoxicity by MTT assay, osteoblasts; type: cell-based, ICR mice; conditions: 6.6 μM, 24 hrs

Row | SMILES | TRAP-positive osteoclast cell number ([1]; 1.65 μM) | TRAP-positive osteoclast cell number ([1]; 3.3 μM) | Inhibitory activity on osteoclast differentiation in co-culture of bone marrow cells and osteoblasts [1] | TRAP-positive osteoclast cell number ([1]; 6.6 μM) | Effect on differentiation of osteoclasts in co-culture of bone marrow cells and osteoblasts ([1]; 1.65-6.6 μM) | Cytotoxicity (MTT) [2] | Cytotoxicity (MTT) [3] | Cytotoxicity (MTT) [4] | TRAP-positive osteoclast cell number ([5]; 0.825 μM) | TRAP-positive osteoclast cell number ([5]; 1.65 μM) | TRAP-positive osteoclast cell number ([5]; 3.3 μM) | TRAP-positive osteoclast cell number ([5]; 6.6 μM) | Effect on osteoclast differentiation during differentiation of osteoclast precursors isolated from bone ([5]; 0.825-6.6 μM) | TRAP-positive osteoclast cell number ([6]; 0.825 μM) | TRAP-positive osteoclast cell number ([6]; 1.65 μM) | TRAP-positive osteoclast cell number ([6]; 3.3 μM) | TRAP-positive osteoclast cell number ([6]; 6.6 μM) | Effect on osteoclast differentiation induced by ODF in bone marrow cells ([6]; 0.825-6.6 μM) | Effect on activation of the transcription factor NF-κB by osteoclast differentiation factor (ODF) [7] | Cytotoxicity (MTT) [8]
1 | CCCCCCCCCCCCCCCCCC(=O)NC(CO)COP(=O)(O)OCC[N+](C)(C)C [CHJ-0014, N-stearoyl-O-phosphocholine-D-serine methylhydroxy] | 80±6.1 | 46±4.7 | inhibit osteoclast differentiation | 16±6.4 | inhibits differentiation of osteoclasts in co-culture of bone marrow cells and osteoblasts in a dose-dependent manner | did not show cytotoxicity | did not show cytotoxicity | did not show cytotoxicity | 318±19.3 | 318±50.4 | 267±24 | 152±29.1 | inhibits osteoclast differentiation during differentiation of osteoclast precursors isolated from bone in a dose-dependent manner | 185±12.9 | 172+9.3 | 87+3.5 | 36+3.6 | inhibits osteoclast differentiation induced by ODF in bone marrow cells in a dose-dependent manner | suppress activation of the transcription factor NF-κB | did not show cytotoxicity
2 | CCCCCCCCCCCCCCCCCC(=O)NC(CO)COP(=O)([O-])OCC[N+](C)(C)C [CHJ-0013, N-stearoyl-O-phosphocholine-L-serine methylhydroxy] | – | – | inhibit osteoclast differentiation | – | – | – | – | – | – | – | – | – | – | – | – | – | – | – | – | –
